Columns and labels:
[1] = tested on: Dendritic cells (DCs) (CD40\CD80\CD86\MHCII); assay: Flow cytometry of dendritic cell activation markers after immunization; type: in vivo, C57BL/6 ordinary mice; conditions: fluorescence intensity (MFI), after 14 days of immunization
Text: (§1) Experimental animals: C57BL/6 ordinary mice, male, weighing 20-22 grams, 7-8 weeks old, purchased from Shanghai SLAC Laboratory Animal Co. Ltd.
(§2) The mice were randomly divided into 8 groups (10 mice in each group). The 8 groups were as listed follows: A: Negative control group (isotype control antibody group); B: blank group; C: cyclic dinucleotide group; D: [Li2(cGAMP)] group; E: [Mg(cGAMP)] group; F: [Zn(cGAMP)] group; G: [Mn(cGAMP)] group; and H: [Fe(cGAMP)] group. Isotype control flow antibody was purchased from eBiosciences, antibody magnetic strain was purchased from Militeny Biotech, and flow cytometry was purchased from BD company. After 14 days of immunization (immunization process was the same as that in the Example 12), spleens and lung tissues of the mice were collected, respectively mashed, filtered through 40 micron pores followed by 1000 rpm of centrifugation for 10 min to solate unlysed immune cells. Dendritic cells (DCs) (CD40\CD80\CD86\MHCII), T(CD8+) cells were separated, and added with corresponding FAC antibodies (diluted with Fluorescence-Activated Cell Sorting (FACS) buffer). Isotype control antibody was used as negative control. After antibody addition, the DCs and T (CD8+) cells were incubate for 1 h, centrifuged and washed by phosphate buffer saline (PBS) followed by analysis by the flow cytometry to sort suitable cells. Fluorescence intensity (MFI) of sorted cells was measured.

IFN-β = IFN-β content in blood induced by the compounds, over time by ELISA; type: in vivo; conditions: SD mice serum, sampled 0-24 h, peak of concentration change curve
Procedure: Experimental animals: SD mice, weighing 200-220 g, were purchased from Shanghai SLAC Laboratory Animal Co. Ltd.
Main test steps: The SD mice were randomly divided into 7 groups (10 mice in each group). The 7 groups were listed as follows: blank control group (injection of normal saline); cGAMP group; [Li2(cGAMP)] group; [Mg(cGAMP)] group; [Zn(cGAMP)] group; [Mn(cGAMP)] group; and [Fe(cGAMP)] group. At fixed time points (0 h, 1 h, 2 h, 4 h, 6 h, 8 h, 10 h, 12 h, 14 h, 16 h, 20 h, and 24 h), 1 mL of blood of each of the SD mice was taken through ophthalmic vein by a capillary, placed in a 1.5 mL of centrifuge tube followed by centrifugation for 30 min. Upper serum was collected and stored at −80° C. for use. Concentrations of cGAMP and IFN-β in the serum were determined by ELISA kit. Based on IFN-β induced by activation of innate immunity paths of the cGAMP and the cyclic dinucleotide metal compounds, a content of the IFN-β in the blood was detected, and stability and activation activity of immune path of the cGAMP and the cyclic dinucleotide metal compounds were evaluated. Concentration values (including cGAMP and IFN-β) in blood samples of the SD mice in each group were detected by the ELISA kit, and the concentration values and average values at each time point were calculated. A concentration change curve over time was drawn, and a peak of the concentration change curve was obtained.

T(CD8+) cells = assay: Flow cytometry of CD8+ T cells in spleen and lung after immunization; type: in vivo, C57BL/6 ordinary mice; conditions: after 14 days of immunization
Text: as §1, §2

[2] = tested on: amyloid plaques in the brains of the AD model mice; assay: Thioflavin S dyeing of amyloid plaque deposition in brains of AD model mice; type: in vivo; conditions: 10 mg/kg intraperitoneal once every 2 days, 60 days
Text: Experimental materials, purchased from Shanghai Model Organisms Center Inc, were APP/PSI transgenic AD model mice, aged 4 months old and weighing 24-26 g. The AD model mice were randomly divided into 7 groups (10 mice in each group). The 7 groups were listed as follows: A: AD model group, as a negative control group (administration of normal saline); B: cGAMP group, as a positive control group (administration of cyclic dinucleotide); C: [Li2(cGAMP)] group (administration of lithium cyclic dinucleotide prepared in Example 1); D: [Mg(cGAMP)] group (administration of magnesium cyclic dinucleotide prepared in Example 2); E: [Zn(cGAMP)] group (administration of zinc cyclic dinucleotide prepared in Example 5); F: [Mn(cGAMP)] group (administration of manganese cyclic dinucleotide prepared in Example 3); G: [Fe(cGAMP)] group (administration of ferrous cyclic dinucleotide prepared in Example 4). The administration in groups C-G was performed as follows. The powdered cyclic dinucleotide metal compounds were prepared into solutions of required concentration with normal saline, respectively. The administration dosage was 10 mg/kg, and the administration was performed via intraperitoneal injection once every 2 days for 60 consecutive days.
This example conducted a Thioflavin S dyeing experiment including the following steps. 60 days after the drug administration, brain tissues of the AD model mice were taken and subjected to fixing, paraffin embedding, section, dimethylbenzene dewaxing, gradient dehydration with ethanol and washing with tris buffered saline (TBS) three times. 0.3 wt. % of Thioflavin S (dissolved in 50 wt. % of ethanol) was dropped onto the brain tissues. The brain tissues were incubated for 10 min followed by washing with 50 wt. % of ethanol, PBS-washing, shade drying and sealing. A laser scanning confocal microscope (Leica, Germany) was used to detect changes of an amount of amyloid plaque deposition in the brains of the AD model mice.

SMILES	Spleen CD40 [1]	Spleen CD80 [1]	Spleen CD86 [1]	Spleen MGCII [1]	Time to peak serum IFN-β concentration (IFN-β)	Lung (% CD8 + T cells) (T(CD8+) cells)	Spleen (% CD8 + T cells) (T(CD8+) cells)	Average points of amyloid plaque fluorescence intensity in the brain tissues of the AD mice (field of vision) [2]
Nc1nc2c(ncn2C2OC3COP(=O)([O-])OC4C(COP(=O)([O-])OC2C3O)OC(n2cnc3c(N)ncnc32)C4O)c(=O)[nH]1.[Fe+2] (stereo not drawn) [[Fe(cGAMP)], ferrous cyclic dinucleotide]	236.8	134.6	24.1	247.1	5.6 h	0.7 ± 0.3%	6.9 ± 1.2%	410 ± 91
Nc1nc2c(ncn2[C@@H]2O[C@@H]3COP(=O)([O-])O[C@H]4[C@@H](O)[C@H](n5cnc6c(N)ncnc65)O[C@@H]4COP(=O)([O-])O[C@@H]2[C@@H]3O)c(=O)[nH]1.[Li+].[Li+] [[Li2(cGAMP)], lithium cyclic dinucleotide]	136.2	157.6	21.7	250.8	5.6 h	0.6 ± 0.2%	3.1 ± 0.3%	165 ± 75
Nc1nc2c(ncn2[C@@H]2O[C@@H]3COP(=O)([O-])O[C@H]4[C@@H](O)[C@H](n5cnc6c(N)ncnc65)O[C@@H]4COP(=O)([O-])O[C@@H]2[C@@H]3O)c(=O)[nH]1.[Mg+2] [[Mg(cGAMP)], magnesium cyclic dinucleotide]	156.6	234.6	36.8	338.2	5.9 h	1.7 ± 0.3%	6.2 ± 0.6%	480 ± 80
Nc1nc2c(ncn2C2OC3COP(=O)([O-])OC4C(COP(=O)([O-])OC2C3O)OC(n2cnc3c(N)ncnc32)C4O)c(=O)[nH]1.[Mn+2] (stereo not drawn) [[Mn(cGAMP)], manganese cyclic dinucleotide]	255.9	132.6	26.3	276.3	6.0 h	0.8 ± 0.3%	7.5 ± 1.3%	390 ± 87
Nc1nc2c(ncn2[C@@H]2O[C@@H]3COP(=O)([O-])O[C@H]4[C@@H](O)[C@H](n5cnc6c(N)ncnc65)O[C@@H]4COP(=O)([O-])O[C@@H]2[C@@H]3O)c(=O)[nH]1.[Zn+2] [[Zn(cGAMP)], zinc cyclic dinucleotide]	264.7	245.7	42.6	424.5	6.2 h	1.6 ± 0.2%	8.6 ± 1.8%	360 ± 75
Nc1nc2c(ncn2[C@@H]2O[C@@H]3COP(=O)(O)O[C@H]4[C@@H](O)[C@H](n5cnc6c(N)ncnc65)O[C@@H]4COP(=O)(O)O[C@@H]2[C@@H]3O)c(=O)[nH]1 [cGAMP, 2′3′-cGAMP, reference compound]	120.5	112.1	16.5	208.1	4.0 h	0.5 ± 0.2%	2.2 ± 0.2%	1790 ± 180

Reference: patent US20240317792A1, “CYCLIC DINUCLEOTIDE METAL COMPOUND, AND PREPARATION AND APPLICATION THEREOF” (HANGZHOU XINGAO BIOTECHNOLOGY CO., LTD., priority 2022, published 2024)
